In one series the target is FGFR3 (h) (Homo sapiens, UniProt P22607). Kind of series: FGFR3 (enzymatic assay), TR-FRET. The format is biochemical. As to conditions: read-out: FGFR 3 pIC50 (converted). As for the experimental part:
In a final reaction volume of 30 μL, FGFR3 (h) (40 ng/ml) was incubated with 50 mM HEPES pH 7.5, 6 mM MnCl2, 1 mM DTT, 0.1 mM Na3VO4, 0.01% Triton-X-100, 500 nM Btn-Flt3 and 25 μM ATP in the presence of compound (1% DMSO final). […] Time-Resolved Fluorescence Resonance Energy Transfer (TR-FRET) signal (ex340 nm. Em 620 nm, em 655 nm) was measured afterwards and results are expressed in RFU (Relative Fluorescence Units).

Series [1] addresses Ba/F3-FGFR1-transfected cells (Homo sapiens, UniProt P11362). Kind of series: Ba/F3-FGFR1 (minus IL3) cellular proliferation assay, Alamar Blue. The format is cell-based. The conditions noted are these: minus IL3, 384 well. As for the experimental part: (§1) Ba/F3-FGFR1 (Minus IL3 or Plus IL3) (Cellular Proliferation Assay)
Cells were put in an incubator at 37° C. and 5% CO2. After 24 hours, 10 μl of Alamar Blue solution (0.5 mM K3Fe(CN)6, 0.5 mM KaFe(CN)6, 0.15 mM Resazurin and 100 mM Phosphate Buffer) was added to the wells, incubated for 4 hours at 37° C. and 5% CO2 before RFU's (Relative Fluorescence Units) (ex. 540 nm., em. 590 nm.) were measured in a flurorescence plate reader. […]
(§2) In a 96 well plate, 180 μl cell culture medium (phenol red free RPMI-1640, 10% FBS, 2 mM L-Glutamine and 50 μg/ml Gentamycin) containing 10000 cells per well of Ba/F3-FGFR1-transfected cells were pipette and 20 μl of compound dilution in DMSO was added. Cells were put in an incubator at 37° C. and 5% CO2. After 24 hours, 40 μl of Alamar Blue solution (0.5 mM K3Fe(CN)6, 0.5 mM KaFe(CN)6, 0.15 mM Resazurin and 100 mM Phosphate Buffer) was added to the wells, incubated for 4 hours at 37° C. and 5% CO2 before RFU's (Relative Fluorescence Units) (ex. 540 nm., em. 590 nm.) were measured in a flurorescence plate reader.

A further series has as its target FGFR2 (h) (Homo sapiens, UniProt P21802). Briefly: FGFR2 (enzymatic assay), TR-FRET. The format is biochemical. The conditions noted are these: read-out: FGFR 2 pIC50 (converted). The procedure: In a final reaction volume of 30 μL, FGFR2 (h) (150 ng/ml) was incubated with 50 mM HEPES pH 7.5, 6 mM MnCl2, 1 mM DTT, 0.1 mM Na3VO4, 0.01% Triton-X-100, 500 nM Btn-Flt3 and 0.4 μM ATP in the presence of compound (1% DMSO final). […] Time-Resolved Fluorescence Resonance Energy Transfer (TR-FRET) signal (ex340 nm. Em 620 nm, em 655 nm) was measured afterwards and results are expressed in (Relative Fluorescence Units).
Background: In TR-FRET formats the signal depends on donor and acceptor labels being close together.

Series [2] deals with Ba/F3-KDR-transfected cells (Homo sapiens, UniProt P35968). Kind of series: Ba/F3-KDR (minus IL3) cellular proliferation assay, Alamar Blue. The format is cell-based. Put shortly:
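Ba/F3-KDR cells in phenol red free RPMI-1640 with 10% FBS were exposed to compound for 24 h at 37 °C, 5% CO2. Alamar Blue (resazurin) was then added for 4 h and fluorescence read at ex 540/em 590 nm. The counterscreen ran identically with 10 ng/ml murine IL3.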
(Resazurin is reduced to fluorescent resorufin, in cell work by metabolically active cells.)

The next series addresses FGFR4 (h) (Homo sapiens, UniProt P22455). Kind of series: FGFR4 (enzymatic assay), TR-FRET. Type of series: biochemical. As to conditions: read-out: FGFR 4 pIC50 (converted). The procedure:
In a final reaction volume of 30 μL, FGFR4 (h) (60 ng/ml) was incubated with 50 mM HEPES pH 7.5, 6 mM MnCl2, 1 mM DTT, 0.1 mM Na3VO4, 0.01% Triton-X-100, 500 nM Btn-Flt3 and 5 μM ATP in the presence of compound (1% DMSO final). […] Time-Resolved Fluorescence Resonance Energy Transfer (TR-FRET) signal (ex340 nm. Em 620 nm, em 655 nm) was measured afterwards and results are expressed in RFU (Relative Fluorescence Units).

Series [3] relates to Ba/F3-FGFR1-transfected cells in the presence of 10 ng/ml murine IL3. Kind of series: Ba/F3-FGFR1 (plus IL3) cellular proliferation counterscreen, Alamar Blue. Type of series: cell-based. The conditions noted are these: Mus musculus; plus IL3, 384 well; read-out: BAF3-FGFR 1 (PLUS IL3) 384 well pIC50 (converted). As for the experimental part:
as §1
as §2, with “a 384” for “a 96”, “plate, 100 nl of compound dilution in DMSO was sprayed before adding 50” for “plate, 180”, “containing 20000” for “containing 10000”, “Ba/F3-FGFR1-transfected cells.” for “Ba/F3-FGFR1-transfected cells were pipette and 20 μl of compound dilution in DMSO was added.”, “hours, 10” for “hours, 40”
As a counterscreen the same experiment was performed in the presence of 10 ng/ml murine IL3.
as §2

Some results are limits rather than exact numbers.

Usually melting point stands for the temperature, or range, at which the solid turns liquid.

FGFR3 (h), sequence (P22607 23-806): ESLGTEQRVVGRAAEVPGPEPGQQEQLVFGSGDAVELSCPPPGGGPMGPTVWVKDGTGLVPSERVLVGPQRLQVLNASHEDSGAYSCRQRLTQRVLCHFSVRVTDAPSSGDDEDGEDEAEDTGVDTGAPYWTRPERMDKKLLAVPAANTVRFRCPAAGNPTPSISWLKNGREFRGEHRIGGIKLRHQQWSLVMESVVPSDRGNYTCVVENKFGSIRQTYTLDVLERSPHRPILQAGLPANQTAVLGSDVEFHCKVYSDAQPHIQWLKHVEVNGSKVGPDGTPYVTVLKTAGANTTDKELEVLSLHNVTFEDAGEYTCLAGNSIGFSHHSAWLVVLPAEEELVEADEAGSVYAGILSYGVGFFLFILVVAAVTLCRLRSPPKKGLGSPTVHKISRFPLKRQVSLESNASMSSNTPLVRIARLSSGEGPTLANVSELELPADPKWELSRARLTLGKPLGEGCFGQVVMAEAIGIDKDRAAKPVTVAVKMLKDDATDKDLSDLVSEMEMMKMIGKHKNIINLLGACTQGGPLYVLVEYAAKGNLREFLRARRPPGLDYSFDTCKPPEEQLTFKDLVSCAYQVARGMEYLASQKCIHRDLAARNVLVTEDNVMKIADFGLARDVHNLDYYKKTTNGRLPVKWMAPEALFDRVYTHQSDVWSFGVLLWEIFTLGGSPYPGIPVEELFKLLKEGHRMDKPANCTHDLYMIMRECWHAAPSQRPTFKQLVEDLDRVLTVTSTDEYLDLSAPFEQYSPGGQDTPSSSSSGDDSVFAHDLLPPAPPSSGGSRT
FGFR4 (h), sequence (P22455 22-802): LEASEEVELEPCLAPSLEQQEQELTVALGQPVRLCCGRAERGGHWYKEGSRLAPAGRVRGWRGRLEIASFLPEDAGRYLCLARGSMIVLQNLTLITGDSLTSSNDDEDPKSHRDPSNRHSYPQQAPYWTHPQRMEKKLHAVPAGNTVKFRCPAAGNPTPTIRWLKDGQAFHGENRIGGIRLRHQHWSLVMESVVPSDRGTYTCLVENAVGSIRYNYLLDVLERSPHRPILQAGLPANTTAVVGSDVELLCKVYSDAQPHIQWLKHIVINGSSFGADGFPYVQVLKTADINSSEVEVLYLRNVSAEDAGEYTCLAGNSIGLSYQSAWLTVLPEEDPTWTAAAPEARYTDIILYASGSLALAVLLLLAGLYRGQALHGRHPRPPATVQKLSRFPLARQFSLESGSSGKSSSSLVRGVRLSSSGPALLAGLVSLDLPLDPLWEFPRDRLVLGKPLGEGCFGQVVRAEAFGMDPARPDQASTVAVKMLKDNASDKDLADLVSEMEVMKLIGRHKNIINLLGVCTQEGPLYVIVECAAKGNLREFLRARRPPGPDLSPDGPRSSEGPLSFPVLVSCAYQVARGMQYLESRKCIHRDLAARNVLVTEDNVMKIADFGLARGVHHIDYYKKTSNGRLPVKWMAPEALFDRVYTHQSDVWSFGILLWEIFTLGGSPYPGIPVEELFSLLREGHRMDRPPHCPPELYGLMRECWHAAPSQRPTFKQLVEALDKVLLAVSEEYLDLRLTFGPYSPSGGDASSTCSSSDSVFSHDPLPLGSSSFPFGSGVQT
Ba/F3-KDR-transfected cells, sequence (P35968 whole entry, change not shown): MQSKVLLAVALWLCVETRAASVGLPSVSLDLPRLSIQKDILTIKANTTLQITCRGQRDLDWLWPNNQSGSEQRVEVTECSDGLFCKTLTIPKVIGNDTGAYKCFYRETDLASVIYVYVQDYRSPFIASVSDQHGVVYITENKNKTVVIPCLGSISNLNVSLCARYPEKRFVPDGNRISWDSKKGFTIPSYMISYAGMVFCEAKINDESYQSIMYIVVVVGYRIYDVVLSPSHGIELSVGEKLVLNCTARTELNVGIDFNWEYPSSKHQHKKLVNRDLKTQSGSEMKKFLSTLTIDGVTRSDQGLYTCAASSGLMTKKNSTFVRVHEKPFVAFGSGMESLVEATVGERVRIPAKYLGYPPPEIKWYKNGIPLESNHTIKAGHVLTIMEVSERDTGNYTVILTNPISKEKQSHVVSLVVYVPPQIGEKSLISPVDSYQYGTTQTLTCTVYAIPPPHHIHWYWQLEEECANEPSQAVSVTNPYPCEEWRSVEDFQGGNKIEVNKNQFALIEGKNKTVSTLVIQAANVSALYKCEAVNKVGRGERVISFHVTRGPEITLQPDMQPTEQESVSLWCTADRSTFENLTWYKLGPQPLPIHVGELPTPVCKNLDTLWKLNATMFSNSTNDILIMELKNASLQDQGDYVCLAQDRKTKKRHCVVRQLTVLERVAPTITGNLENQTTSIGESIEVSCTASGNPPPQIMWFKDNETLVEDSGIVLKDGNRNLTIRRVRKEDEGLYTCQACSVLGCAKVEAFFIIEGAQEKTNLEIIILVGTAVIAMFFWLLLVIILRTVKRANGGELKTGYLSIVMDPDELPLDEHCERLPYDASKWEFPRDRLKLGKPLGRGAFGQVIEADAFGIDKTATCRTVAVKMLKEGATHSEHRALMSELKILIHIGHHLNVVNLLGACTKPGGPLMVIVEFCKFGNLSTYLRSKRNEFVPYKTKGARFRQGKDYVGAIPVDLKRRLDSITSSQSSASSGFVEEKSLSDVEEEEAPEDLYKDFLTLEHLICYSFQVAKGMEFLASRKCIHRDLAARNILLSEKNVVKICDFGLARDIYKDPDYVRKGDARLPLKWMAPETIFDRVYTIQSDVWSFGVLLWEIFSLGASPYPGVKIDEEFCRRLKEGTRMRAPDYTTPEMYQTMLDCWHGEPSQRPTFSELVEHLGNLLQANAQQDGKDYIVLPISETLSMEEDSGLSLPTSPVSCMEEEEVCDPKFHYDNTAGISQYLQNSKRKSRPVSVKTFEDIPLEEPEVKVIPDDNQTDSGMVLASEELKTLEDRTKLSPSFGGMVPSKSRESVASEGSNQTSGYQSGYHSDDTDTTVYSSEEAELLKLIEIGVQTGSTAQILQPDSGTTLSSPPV
FGFR2 (h), sequence (P21802 22-821): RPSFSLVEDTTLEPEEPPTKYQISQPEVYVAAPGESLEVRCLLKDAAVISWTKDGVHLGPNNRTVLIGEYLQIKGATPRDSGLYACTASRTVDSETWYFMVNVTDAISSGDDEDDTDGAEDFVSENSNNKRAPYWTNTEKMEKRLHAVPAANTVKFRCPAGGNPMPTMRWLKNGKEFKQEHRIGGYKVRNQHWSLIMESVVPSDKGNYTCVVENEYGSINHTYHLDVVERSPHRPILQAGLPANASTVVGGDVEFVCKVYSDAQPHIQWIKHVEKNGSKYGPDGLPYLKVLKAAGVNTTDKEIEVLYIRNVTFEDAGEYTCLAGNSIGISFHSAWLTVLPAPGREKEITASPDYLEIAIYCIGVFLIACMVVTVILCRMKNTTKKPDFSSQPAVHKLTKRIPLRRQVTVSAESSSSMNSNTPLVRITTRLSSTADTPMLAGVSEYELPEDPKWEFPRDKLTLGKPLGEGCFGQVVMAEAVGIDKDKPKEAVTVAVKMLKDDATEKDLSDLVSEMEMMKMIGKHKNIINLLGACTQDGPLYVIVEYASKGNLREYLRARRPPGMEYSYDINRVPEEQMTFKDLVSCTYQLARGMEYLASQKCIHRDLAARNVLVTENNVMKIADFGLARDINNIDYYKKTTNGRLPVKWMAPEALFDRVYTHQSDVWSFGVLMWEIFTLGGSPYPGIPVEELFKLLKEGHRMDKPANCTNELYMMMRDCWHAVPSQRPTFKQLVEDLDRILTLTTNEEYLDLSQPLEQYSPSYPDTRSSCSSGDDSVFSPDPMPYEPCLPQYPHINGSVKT
Ba/F3-FGFR1-transfected cells, sequence (P11362 whole entry, change not shown): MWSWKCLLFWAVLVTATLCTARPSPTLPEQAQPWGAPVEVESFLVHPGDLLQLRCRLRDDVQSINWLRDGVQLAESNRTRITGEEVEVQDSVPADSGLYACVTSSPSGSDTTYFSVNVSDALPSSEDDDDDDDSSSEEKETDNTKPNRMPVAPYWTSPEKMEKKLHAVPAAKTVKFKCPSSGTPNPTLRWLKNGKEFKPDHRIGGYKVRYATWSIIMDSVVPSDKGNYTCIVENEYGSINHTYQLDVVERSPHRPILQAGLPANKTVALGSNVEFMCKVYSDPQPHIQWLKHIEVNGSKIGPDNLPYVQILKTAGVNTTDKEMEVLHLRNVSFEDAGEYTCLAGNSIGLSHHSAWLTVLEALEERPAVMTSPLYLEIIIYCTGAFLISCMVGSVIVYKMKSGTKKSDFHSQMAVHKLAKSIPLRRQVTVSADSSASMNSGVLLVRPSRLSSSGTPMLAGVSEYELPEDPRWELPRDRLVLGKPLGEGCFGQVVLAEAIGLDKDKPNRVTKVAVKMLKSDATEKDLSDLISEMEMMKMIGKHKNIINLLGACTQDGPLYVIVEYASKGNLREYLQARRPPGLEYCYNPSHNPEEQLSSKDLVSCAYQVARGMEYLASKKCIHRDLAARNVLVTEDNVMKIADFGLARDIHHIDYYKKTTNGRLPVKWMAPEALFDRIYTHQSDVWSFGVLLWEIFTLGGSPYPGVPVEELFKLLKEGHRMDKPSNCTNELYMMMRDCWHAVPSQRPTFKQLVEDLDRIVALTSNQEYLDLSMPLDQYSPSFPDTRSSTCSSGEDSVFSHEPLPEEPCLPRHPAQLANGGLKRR

`COc1cc(OC)cc(N(CCO)c2ccc3ncc(N4CCC(CN)CC4)nc3c2)c1` [Compound 84] gave a melting point of 159 °C. For the same compound, at FGFR3 (h), the IC50 is 40.7 nM. The “BAF3-FGFR 1 (MIN IL3) 384 well pIC50” value in series [1] was 5.05. Also, the IC50 on FGFR2 (h) is 91.2 nM. For the same compound, in series [2] (minus IL3), the “BAF3-KDR (MIN IL3) 384 well pIC50” value is reported as less than 5. In addition, the IC50 on FGFR4 (h) is 617 nM.
On to `COc1cc(OC)cc(N(CC2CC2)c2ccc3ncc(-c4nnc(C)o4)nc3c2)c1` [Compound 85], for which the melting point stood at 134 °C. Moreover, the IC50 on FGFR3 (h) was 191 nM. The “BAF3-FGFR 1 (MIN IL3) 384 well pIC50” value in series [1] is recorded as less than 5. Further, the IC50 at FGFR2 (h) is 380 nM. Moreover, in series [2] (minus IL3, 384 well), the “BAF3-KDR (MIN IL3) 384 well pIC50” value was less than 5. Further, the IC50 on FGFR4 (h) was 1480 nM.
For `COc1cc(OC)cc(N(CC2CC2)c2ccc3ncc(-c4ccc5[nH]ccc5c4)nc3c2)c1` [Compound 86], the melting point was determined as 181 °C. On FGFR3 (h), the IC50 is 417 nM. Moreover, the “BAF3-FGFR 1 (MIN IL3) 384 well pIC50” value in series [1] is less than 5. For the same compound, the IC50 at FGFR2 (h) was 1820 nM. Moreover, the “BAF3-KDR (MIN IL3) 384 well pIC50” value in series [2] (minus IL3, 384 well) is listed as less than 5. For the same compound, at FGFR4 (h), the IC50 was 3980 nM.
As for `COc1cc(OC)cc(N(CCNC(C)C)c2ccc3ncc(-c4ccc(N5CCN(C)CC5)nc4)nc3c2)c1` [Compound 170], the IC50 is 6.17 nM on FGFR3 (h), 3.98 nM at FGFR2 (h), 28.8 nM on FGFR4 (h) and 3550 nM in series [3]. For the same compound, the “BAF3-FGFR 1 (MIN IL3) 384 well pIC50” value in series [1] is 6.04. For the same compound, the “BAF3-KDR (MIN IL3) 384 well pIC50” value in series [2] (minus IL3) is given as less than 5.
As for `COC(=O)C1CCCN1c1cnc2ccc(N(CCO)c3cc(OC)cc(OC)c3)cc2n1` (stereo not drawn) [Compound 172], the IC50 on FGFR3 (h) was 87.1 nM; at FGFR2 (h) it was 145 nM; at FGFR4 (h) it was 417 nM; in series [3], more than 10000 nM. For the same compound, in series [1], the “BAF3-FGFR 1 (MIN IL3) 384 well pIC50” value was 6.6. In addition, the “BAF3-KDR (MIN IL3) 384 well pIC50” value in series [2] (minus IL3) is given as less than 5.
Regarding `COc1cc(OC)cc(N(CCNC(C)C)c2ccc3ncc(C(=O)N4CCN(C)CC4)nc3c2)c1` [Compound 179], the IC50 is 380 nM at FGFR3 (h), 427 nM at FGFR2 (h), more than 1000 nM at FGFR4 (h) and more than 10000 nM in series [3]. Besides, the “BAF3-FGFR 1 (MIN IL3) 384 well pIC50” value in series [1] is listed as 5.62. In series [2] (minus IL3), the “BAF3-KDR (MIN IL3) 384 well pIC50” value is given as less than 5.
As to `COc1cc(OC)cc(N(CCNC(C)C)c2ccc3ncc(C(=O)N4CCCCC4)nc3c2)c1` [Compound 180], the IC50 on FGFR3 (h) was 263 nM; at FGFR2 (h) it was 302 nM; at FGFR4 (h), 977 nM; in series [3] it was more than 10000 nM. The “BAF3-FGFR 1 (MIN IL3) 384 well pIC50” value in series [1] came to 5.51. For the same compound, the “BAF3-KDR (MIN IL3) 384 well pIC50” value in series [2] (minus IL3) is reported as less than 5.
In the case of `COc1cc(OC)cc(N(CCNC(C)C)c2ccc3ncc(C(=O)N4CCOCC4)nc3c2)c1` [Compound 181], the IC50 at FGFR3 (h) is 501 nM; at FGFR2 (h), 490 nM; on FGFR4 (h) it was more than 1000 nM; in series [3] it was more than 10000 nM. Besides, in series [1], the “BAF3-FGFR 1 (MIN IL3) 384 well pIC50” value is 5.44. For the same compound, the “BAF3-KDR (MIN IL3) 384 well pIC50” value in series [2] (minus IL3) was less than 5.
On to `COc1cc(OC)cc(N(CCO)c2ccc3ncc(C4CCN(C(=O)OC(C)(C)C)CC4)nc3c2)c1` [Compound 185], for which the IC50 is 110 nM on FGFR3 (h), 214 nM on FGFR2 (h), more than 1000 nM at FGFR4 (h) and more than 10000 nM in series [3]. The “BAF3-FGFR 1 (MIN IL3) 384 well pIC50” value in series [1] was less than 5. In addition, the “BAF3-KDR (MIN IL3) 384 well pIC50” value in series [2] (minus IL3) is reported as less than 5.
Regarding `COc1cc(OC)cc(N(CCCO)c2ccc3ncc(-c4ccnc(C(=O)NCCOCCO)c4)nc3c2)c1` [Compound 186], the IC50 at FGFR3 (h) was 16.2 nM; on FGFR2 (h) it was 36.3 nM; at FGFR4 (h) it was 126 nM; in series [3] it was more than 10000 nM. The “BAF3-FGFR 1 (MIN IL3) 384 well pIC50” value in series [1] came out at 5.98. In series [2] (minus IL3), the “BAF3-KDR (MIN IL3) 384 well pIC50” value is recorded as less than 5.
`COc1cc(OC)cc(N(CCNC(C)C)c2ccc3ncc(-c4ccn[nH]4)nc3c2)c1` [Compound 189]: the IC50 on FGFR3 (h) was 6.17 nM; at FGFR2 (h), 2.29 nM; on FGFR4 (h) it was 7.24 nM; in series [3] it was more than 10000 nM. Further, the “BAF3-FGFR 1 (MIN IL3) 384 well pIC50” value in series [1] is recorded as 7.29. In series [2] (minus IL3), the “BAF3-KDR (MIN IL3) 384 well pIC50” value is listed as 5.14.

Source of the values: patent publication US10052320B2, “Substituted quinoxalines as FGFR kinase inhibitors” (ASTEX THERAPEUTICS LIMITED, priority 2011, dated 2018).
